From patent publication US9732081B2, “1,6-diazabicyclo [3,2,1] octan-7-one derivatives and their use in the treatment of bacterial infections” (WOCKHARDT LIMITED, priority 2012, dated 2017)
In brackets after ≈: the same amount, converted by molar mass. Read-outs that look alike come from different tables or passages of the source.

How the values were obtained:
Format in all cases: cell-based
[1] = test system: E. Coli W 13353; experiment: Antibacterial activity (MIC, agar dilution per CLSI) against E. Coli W 13353; conditions: for MIC: Escherichia coli
Method: (§1) The biological activity of representative compounds according to the invention against various bacterial strains was investigated. In a typical study, overnight grown bacterial cultures were diluted appropriately and inoculated on the agar media containing doubling dilutions of the test compounds. Observation for growth or no growth was performed after 16-20 hours of incubation at 35±2° C. in ambient air. The overall procedure was performed as per Clinical and Laboratory Standards Institute (CLSI) recommendations (Clinical and Laboratory Standards Institute (CLSI), Performance Standards for Antimicrobial Susceptibility Testing, 20th Informational Supplement, M 100-S20, Volume 30, No. 1, 2010).
(§2) The activities are expressed as MICs (mcg/ml).

[2] = test system: E. Coli W 13351; experiment: Antibacterial activity (MIC, agar dilution per CLSI) against E. Coli W 13351; conditions: for MIC: Escherichia coli
Method: as §1, §2

[3] = test system: E. Coli W 13352; experiment: Antibacterial activity (MIC, agar dilution per CLSI) against E. Coli W 13352; conditions: for MIC: Escherichia coli
Method: as §1, §2

[4] = test system: E. Coli M 50; experiment: Antibacterial activity (MIC, agar dilution per CLSI) against E. Coli M 50; conditions: for MIC: Escherichia coli
Method: as §1, §2

[5] = test system: E. Coli H 483; experiment: Antibacterial activity (MIC, agar dilution per CLSI) against E. Coli H 483; conditions: for MIC: Escherichia coli, read-out: MIC E. Coli H 483
Method: as §1, §2

[6] = test system: P. aeruginosa Ps 21; experiment: Antibacterial activity (MIC, agar dilution per CLSI) against P. aeruginosa Ps 21; conditions: for MIC: Pseudomonas aeruginosa
Method: as §1, §2

[7] = test system: P. aeruginosa Ps 32; experiment: Antibacterial activity (MIC, agar dilution per CLSI) against P. aeruginosa Ps 32; conditions: for MIC: Pseudomonas aeruginosa
Method: as §1, §2

[8] = MDR Gram negative strain, Class A ESBL, 16-20 hours at 35±2° C.
[9] = MDR Gram negative strain, Class C ESBL, 16-20 hours at 35±2° C.
[10] = MDR Gram negative strain, Class C ESBL, agar dilution, 16-20 hours at 35±2° C.
[11] = MDR P. aeruginosa strain, agar dilution, 16-20 hours at 35±2° C.
[12] = MDR Gram negative strain, Class A ESBL, 16-20 hours at 35±2° C., read-out: MIC E. Coli W 13353
[13] = MDR Gram negative strain, Class A ESBL, 16-20 hours at 35±2° C., read-out: MIC E. Coli W 13351
[14] = MDR Gram negative strain, Class A ESBL, 16-20 hours at 35±2° C., read-out: MIC E. Coli W 13352
[15] = MDR Gram negative strain, Class C ESBL, 16-20 hours at 35±2° C., read-out: MIC E. Coli M 50
[16] = PS21, MDR P. aeruginosa strain, agar dilution, 16-20 hours at 35±2° C., read-out: MIC Ps 21
[17] = PS32, MDR P. aeruginosa strain, agar dilution, 16-20 hours at 35±2° C., read-out: MIC Ps 32

Row | MIC [1, 12] [µg/mL] | MIC [2, 13] [µg/mL] | MIC [3, 14] [µg/mL] | MIC [4, 15] [µg/mL] | MIC [5, 10] [µg/mL] | MIC [6, 16] [µg/mL] | MIC [7, 17] [µg/mL] | Compound | MIC E. Coli W 13353 [1, 8] [µg/mL] | MIC E. Coli W 13351 [2, 8] [µg/mL] | MIC E. Coli W 13352 [3, 8] [µg/mL] | MIC E. Coli M 50 [4, 9] [µg/mL] | other results
1 | 0.25 (≈ 0.835 µM) | 0.25 (≈ 0.835 µM) | 0.25 (≈ 0.835 µM) | 0.5 (≈ 1.67 µM) | 1 (≈ 3.34 µM) | > 32 | > 32 | C[C@@H](O)[C@H]1C(=O)N2C(C(=O)O)=C(SCCN=CN)C[C@H]12 [Imipenem, reference compound] |  |  |  |  | 
2 | 8 (≈ 22 µM) | 8 (≈ 22 µM) | 8 (≈ 22 µM) | 8 (≈ 22 µM) | > 32 | > 32 | > 32 | O=C(NOC[C@@H]1CCNC1)[C@@H]1CC[C@@H]2CN1C(=O)N2OS(=O)(=O)O [Example 4, (2S,5R)-7-oxo-N-[(3R)-pyrrolidin-3-ylmethyloxy]-6-(sulfooxy)-1,6-diazabicyclo[3.2.1]octane-2-carboxamide] |  |  |  |  | 
3 | 8 (≈ 22 µM) | 16 (≈ 43.9 µM) | 16 (≈ 43.9 µM) | 8 (≈ 22 µM) | > 32 | > 32 | > 32 | O=C(NOC[C@H]1CCNC1)[C@@H]1CC[C@@H]2CN1C(=O)N2OS(=O)(=O)O [Example 3, (2S,5R)-7-oxo-N-[(3S)-pyrrolidin-3-ylmethyloxy]-6-(sulfooxy)-1,6-diazabicyclo[3.2.1]octane-2-carboxamide] |  |  |  |  | 
4 | 1 (≈ 2.74 µM) | 2 (≈ 5.49 µM) | 2 (≈ 5.49 µM) | 1 (≈ 2.74 µM) | > 32 | > 32 | > 32 | O=C(NOC[C@H]1CCCN1)[C@@H]1CC[C@@H]2CN1C(=O)N2OS(=O)(=O)O [Example 2, (2S,5R)-7-oxo-N-[(2R)-pyrrolidin-2-ylmethyloxy]-6-(sulfooxy)-1,6-diazabicyclo[3.2.1]octane-2-carboxamide] |  |  |  |  | 

Continued, compound first:

Row | Compound | MIC [1, 12] [µg/mL] | MIC [2, 13] [µg/mL] | MIC [3, 14] [µg/mL] | MIC [4, 15] [µg/mL] | MIC [5, 10] [µg/mL] | MIC [6, 16] [µg/mL] | MIC [7, 17] [µg/mL] | MIC E. Coli W 13353 [1, 8] [µg/mL] | MIC E. Coli W 13351 [2, 8] [µg/mL] | MIC E. Coli W 13352 [3, 8] [µg/mL] | MIC E. Coli M 50 [4, 9] [µg/mL] | other results
5 | O=C(NOCC1CCCCN1)[C@@H]1CC[C@@H]2CN1C(=O)N2OS(=O)(=O)O (stereo partly drawn) [Example 17, (2S,5R)-7-oxo-N-((2R,S)piperidin-2-ylmethyloxy)-6-(sulfooxy)-1,6-diazabicyclo[3.2.1]octane-2-carboxamide] |  |  |  |  |  |  |  | 0.5 (≈ 1.32 µM) | 1 (≈ 2.64 µM) | 1 (≈ 2.64 µM) | 0.5 (≈ 1.32 µM) | MIC E. Coli H 483 [5, 10]: >32 µg/mL; MIC Ps 21 [6, 11]: >32 µg/mL; MIC Ps 32 [7, 11]: >32 µg/mL
6 | C[C@H]1[C@H](NC(=O)/C(=N\OC(C)(C)C(=O)O)c2csc(N)n2)C(=O)N1S(=O)(=O)O [Aztreonam, reference compound] | > 32 | > 32 | > 32 | > 32 | > 32 | 8 (≈ 18.4 µM) | 8 (≈ 18.4 µM) |  |  |  |  | 
7 | O=C(NOC[C@@H]1CCCCN1)[C@@H]1CC[C@@H]2CN1C(=O)N2OS(=O)(=O)O [Example 18, (2S,5R)-7-oxo-N-((2S)piperidin-2-ylmethyloxy)-6-(sulfooxy)-1,6-diazabicyclo[3.2.1]octane-2-carboxamide] |  |  |  |  |  |  |  | 0.5 (≈ 1.32 µM) | 1 (≈ 2.64 µM) | 1 (≈ 2.64 µM) | 1 (≈ 2.64 µM) | MIC [5]: > 32 µg/mL; MIC ([6]; PS21, read-out: MIC Ps 21): > 32 µg/mL; MIC ([7]; PS32, read-out: MIC Ps 32): > 32 µg/mL
8 | CC(C)(O/N=C(\C(=O)N[C@@H]1C(=O)N2C(C(=O)[O-])=C(C[n+]3ccccc3)CS[C@H]12)c1csc(N)n1)C(=O)O [Ceftazidime, reference compound] | 32 (≈ 58.5 µM) | 32 (≈ 58.5 µM) | > 32 | > 32 | > 32 | > 32 | > 32 |  |  |  |  | 
9 | O=C(NOC[C@@H]1CCCN1)[C@@H]1CC[C@@H]2CN1C(=O)N2OS(=O)(=O)O [Example 1, (2S,5R)-7-oxo-N-[(2S)-pyrrolidin-2-ylmethyloxy]-6-(sulfooxy)-1,6-diazabicyclo[3.2.1]octane-2-carboxamide] | 0.5 (≈ 1.37 µM) | 1 (≈ 2.74 µM) | 1 (≈ 2.74 µM) | 0.5 (≈ 1.37 µM) | > 32 | > 32 | > 32 |  |  |  |  | 
10 | O=C(NOC1CCNC1)[C@@H]1CC[C@@H]2CN1C(=O)N2OS(=O)(=O)O (stereo partly drawn) [Example 30, (2S,5R)-7-oxo-N-[(3R,S)-pyrrolidin-3-yloxy]-6-(sulfooxy)-1,6-diazabicyclo[3.2.1]octane-2-carboxamide] |  |  |  |  |  |  |  | 4 (≈ 11.4 µM) | 8 (≈ 22.8 µM) | 8 (≈ 22.8 µM) | 4 (≈ 11.4 µM) | MIC E. Coli H 483 [5, 10]: >32 µg/mL; MIC Ps 21 [6, 11]: >32 µg/mL; MIC Ps 32 [7, 11]: >32 µg/mL
11 | CN(C)c1cc(NC(=O)CNC(C)(C)C)c(O)c2c1C[C@H]1C[C@H]3[C@H](N(C)C)C(O)=C(C(N)=O)C(=O)[C@@]3(O)C(O)=C1C2=O [Tigecyclin, Tigecycline, reference compound] |  |  |  |  |  |  |  |  |  |  |  | MIC ([1]; read-out: MIC E. Coli W 13353, MDR Gram negative strain, Class A ESBL, 16-20 hours at 35±2° C.): 1 µg/mL (≈ 1.71 µM); MIC ([2]; read-out: MIC E. Coli W 13351, MDR Gram negative strain, Class A ESBL, 16-20 hours at 35±2° C.): 1 µg/mL (≈ 1.71 µM); MIC ([3]; read-out: MIC E. Coli W 13352, MDR Gram negative strain, Class A ESBL, 16-20 hours at 35±2° C.): 0.25 µg/mL (≈ 0.427 µM); MIC ([4]; read-out: MIC E. Coli M 50, MDR Gram negative strain, Class C ESBL, 16-20 hours at 35±2° C.): 0.5 µg/mL (≈ 0.854 µM); MIC [5]: 0.5 µg/mL (≈ 0.854 µM); MIC ([6]; PS21, read-out: MIC Ps 21): 16 µg/mL (≈ 27.3 µM); MIC ([7]; PS32, read-out: MIC Ps 32): 16 µg/mL (≈ 27.3 µM)
12 | O=C(NOC[C@@H]1CCCCN1)[C@@H]1CC[C@@H]2CN1C(=O)N2OS(=O)(=O)O [Example 19, (2S,5R)-7-oxo-N-((2S)piperidin-2-ylmethyloxy)-6-(sulfooxy)-1,6-diazabicyclo[3.2.1]octane-2-carboxamide] |  |  |  |  |  |  |  | 4 (≈ 10.6 µM) | 8 (≈ 21.1 µM) | 16 (≈ 42.3 µM) | 8 (≈ 21.1 µM) | MIC E. Coli H 483 [5, 10]: >32 µg/mL; MIC Ps 21 [6, 11]: >32 µg/mL; MIC Ps 32 [7, 11]: >32 µg/mL
